Entries after “also recorded” stand apart in the source; their conditions may differ.

Data set [1] concerns relapsed or refractory SCLC and other solid tumors. Kind of data set: phase I dose-escalation study, tumor response (RECIST). Type of data set: in vivo, human. An excerpt:
(§1) This example illustrates a phase I dose-escalation study to evaluate the safety, pharmacokinetics, and preliminary efficacy of navitoclax in subjects with relapsed or refractory SCLC and other solid tumors. This phase I study of navitoclax, a novel inhibitor of Bcl-2 family proteins, was designed to evaluate safety, pharmacokinetics, and preliminary efficacy in subjects with small cell lung cancer (SCLC) or other solid tumors.
(§2) Subjects enrolled to intermittent dosing cohorts received navitoclax on Days 1-14 followed by 7 days off. Subjects on continuous dosing cohorts received a one week lead-in dose of 150 mg followed by continuous daily administration of navitoclax. Blood samples were collected for pharmacokinetic analyses, biomarker analyses, and platelet monitoring.
Subjects included histologically documented SCLC or other non-hematologic malignancies, age ≧18, Eastern Cooperative Oncology Group performance status (ECOG PS) of ≦2, measurable disease by Response Evaluation Criteria in Solid Tumors (RECIST 1.0), and had received at least one prior chemotherapy treatment with documented progression. Subjects with brain metastases were included if they had surgery and/or radiation therapy followed by 21 days of stable neurologic function and stable disease by imaging prior to the first dose of study drug. Additional inclusion criteria included adequate bone marrow, renal and hepatic function per local laboratory reference range, non-pregnant status, and a life expectancy of ≧90 days.
(§3) Subjects were evaluated with history, physical exam, vital signs, complete blood count, chemistries, urinalysis and ECOG PS weekly through C2 and on D1 of each subsequent cycle. ECG and 2D-ECHO were obtained on C1D-3, C1D14, C3D1, C3D14, and end of study. Platelet counts were obtained on D-3 through 14 of C1, and weekly through each subsequent cycle. Lymphocyte enumeration was performed at screening, C1D14, at the end of C4, and at the end of every 3rd cycle thereafter. Radiographic tumor assessments were performed at baseline, after the 2nd and 4th cycles and after every 3 cycles thereafter.

The nature of data set [2]: phase I dose-escalation study, safety. Type of data set: in vivo, human.
Excerpt: as §1, §2
as §3, with “cycles thereafter. […]” for “cycles thereafter.”

Data set [3] can be described thus: phase I study, pharmacokinetics. Type of data set: in vivo. As to conditions: human, plasma; phase 1, patients, oral.
Another data set concerns pro-GRP. The data set can be described thus: phase I study, plasma pro-GRP (ARCHITECT ELISA). Type of data set: in vivo, human. Particulars: with increasing dose. The method, then:
(§4) Blood samples for circulating tumor cells (CTCs) were collected at screening, C1D14, C2D14, and at the end of study treatment. Samples for the plasma marker Pro-GRP were collected at screening, C1D14, C2D14, and at the end of study. Samples for serum marker M30 were collected at screening, pre-dose, 6 and 24 hours post-dose on C1D-3 (for 14/21 day dosing) or lead-in day 2 for 21/21 day dosing). Samples were also collected on C1D14; pre-dose and 6 hours post-dose on C2D1; C2D14; end of cycle 4; and every 3rd cycle thereafter and at the final visit for all subjects.
(§5) The CTC were analyzed via the CellSearch system (Veridex, Raritan, N.J.). […] Pro-GRP was measured using ARCHITECT ELISA kits (Abbott Diagnostics, Abbott Park, Ill.). Serum samples were analyzed for M30 and M65 (Peviva) using previously described assays validated to good clinical laboratory practice (Cummings J, Ward T H, LaCasse E, et al: Validation of pharmacodynamic assays to evaluate the clinical efficacy of an antisense compound (AEG 35156) targeted to the X-linked inhibitor of apoptosis protein XIAP. Br J Cancer 92:532-8, 2005; and Cummings J, Ranson M, Lacasse E, et al: Method validation and preliminary qualification of pharmacodynamic biomarkers employed to evaluate the clinical efficacy of an antisense compound (AEG35156) targeted to the X-linked inhibitor of apoptosis protein XIAP. […]

In data set [4] the test system is M30. Kind of data set: phase I study, serum M30 (caspase-cleaved CK18). In kind it is in vivo, human. On the procedure:
as §4, §5

Data set [5] relates to M30. The data set can be described thus: phase 2 study, M30 ELISA assay in patient serum. Type of data set: in vivo, human.
Procedure: Serum and plasma samples collected at the same intervals were stored at −70° C. or colder until analyzed for quantitative assessment of tumor markers. CYFRA 21-1 and Pro-GRP were measured using the automated [sequence] ELISA kits (Abbott Diagnostics, Abbott Park, Ill.) and NSE was measured in plasma using automated electrochemoluminescent assays on Elecsys 2010 (Roche Diagnostics, Germany). Serum samples were analyzed for M30 and M65 (Peviva AB, Sweden) using previously described assays validated to good clinical laboratory practice (see, Cummings J., et al., Br J Cancer 92:532-8, 2005; and Cummings J., et al., Br J Cancer 95:42-8, 2006).
(§6) Correlations between median BCL2 copy number and pro-GRP were performed by the Pearson correlation; M30 and CTC change from baseline comparisons among Pro-GRP groups were performed by one-way ANOVA using the JMP 8.0 statistical software.
This assay measures the release of caspase-cleaved cytokeratin 18 following apoptotic cell death.
The test system of data set [6] is circulating tumor cells (CTC). The data set can be described thus: phase 2 study, circulating tumor cell number (CellSearch). In kind it is in vivo, human.
Procedure: Blood specimens for analyzing circulating tumor cells (CTC) were collected at screening, on day 14 of cycles 1 and 2, and at final study visit (for US patients only). […] Samples enriched for CTC are removed from the Veridex cartridge after the imaging and enumeration, washed 1× in PBS, pelleted then resuspended in 100 μL PBS and dropped onto a positively charged slide (Biogenex, San Ramon, Calif.) and dried. The slides are then rinsed in H2O prior to imaging using the Carl Zeiss (Germany) or Bioview imaging systems (Tel Aviv, Israel), the CTC are identified and the locations recorded. […] The slides are then returned to the Zeiss or Bioview imaging systems and the previously identified CTC are assessed for DNA copy number.
as §6
To further evaluate this association, we assessed plasma Pro-GRP, and BCL2 copy number by FISH in CTC from patients on this study (n=10).
The nature of data set [7]: phase 2 study, safety / study discontinuation. In kind it is in vivo, human. As to conditions: phase 2, 39 patients. On the procedure:
Safety assessments included history and physical examinations, vital signs, ECOG performance status, AEs, blood chemistry and complete blood counts with differential. Safety assessments were performed at screening, weekly during cycle 1, and at the start of subsequent cycles. Adverse event severity was graded according to the National Cancer Institute Common Terminology Criteria for Adverse Events (NCI CTCAE), version 3.0 (Common Terminology Criteria for Adverse Events. Version 3.0. Available at NCI website for the cancer therapy evaluation program (CTEP). Relationships of adverse events to navitoclax (definitely, probably, possibly, unlikely, or unrelated) were assessed by the Principal Investigator at each site.
A total of 39 patients participated in the phase 2 study. The majority of patients were of performance status 1. The median number of prior therapeutic regimens was 2 (range 1-6). All patients were started at the planned dose and schedule, including dose escalation to 325 mg in week 2. The primary reasons for study discontinuation included disease progression (N=26, 67%) and AEs (N=11, 28%). The median number of treatment cycles was 2 (range, 1-11) and the median treatment duration was 1.3 months (range, 0.2-7.3).

The mark [8] stands for this setting: 47 enrolled, 38 evaluable for response.

With `CC1(C)CCC(c2ccc(Cl)cc2)=C(CN2CCN(c3ccc(C(=O)NS(=O)(=O)c4ccc(NC(CCN5CCOCC5)CSc5ccccc5)c(S(=O)(=O)C(F)(F)F)c4)cc3)CC2)C1` (stereo in doubt) [navitoclax, N-(4-(4-(2-(4-chlorophenyl)-5,5-dimethyl-1-cyclohex-1-en-1-yl)methyl)pip-erazin-1-yl)benzoyl)-4-(((1R)-3-(morpholin-4-yl)-1-((phenylsulfanyl)methyl)propyl)amino)-3-((trifluoromethyl)sulfonyl)benzenesulfonamide], in data set [1] (setting [8]), the “subjects with partial response” value is reported as “One”. Besides, in data set [1] (setting [8]), the “subjects with stable disease” value came to 7. Moreover, the “duration of partial response” value in data set [1] (one subject, remains on study) was “over 26 months”. For the same molecule, the “recommended phase 2 dose” value in data set [2] (from exploration of doses and schedules in phase I) is on record as 325 mg daily. Further, the toxicities / tolerability result in data set [2] (phase I, intermittent and continuous dosing cohorts) is “dose and schedule-dependent thrombocytopenia, diarrhea, nausea, and fatigue; also recorded: safe, well-tolerated, with dose-dependent thrombocytopenia as the major side effect; also recorded: rapid and dose-dependent thrombocytopenia”. In data set [3], this molecule gave a half-life of around 15 h. In the data set on pro-GRP, the Pro-GRP levels overall result was “declined or stabilized with increasing navitoclax dose”. The “time of rise in M30 following the first dose” value in the data set on M30 [4] (in most instances) was at most 6 h. In addition, the “circulating M30” value in the data set with M30 [4] (serum, cycle 1, post first exposure) is “dose-dependent transient increase in circulating M30”. Moreover, the M30 concentrations stood at 205% in the data set with M30 [5] (better prognosis patients, high Pro-GRP group (above 600 pg/mL)); 116% in the data set on M30 [5] (better prognosis patients, low Pro-GRP group (below 600 pg/mL)); 212% in the data set with M30 [5] (total population, high Pro-GRP group n=19); 109% in the data set on M30 [5] (total population, low Pro-GRP n=13). For the same molecule, the “median CTC number” value in data set [6] (better prognosis patients, high pro-GRP group, baseline to day 14) is on record as 91 % of baseline; in data set [6] (better prognosis patients, low pro-GRP group, baseline to day 14) it was 349 % of baseline; in data set [6] (total population, high pro-GRP group n=12), 186 % of baseline; in data set [6] (total population, low pro-GRP group n=8), 518 % of baseline. Besides, the “study discontinuation due to AEs” value in data set [7] is given as 28%.

The values are drawn from patent US8748108B2, “Biomarkers for identifying patient classes” (AbbVie Inc., priority 2006, dated 2014).
